The target in experiment [1] is T1, C1s (Homo sapiens, UniProt P09871).
T1 construct: Recombinant C1s and C1r fragments (CCP1-CCP2-SP, the γB catalytic region); made in house
T1 sequence (P09871 438-688 limits assumed): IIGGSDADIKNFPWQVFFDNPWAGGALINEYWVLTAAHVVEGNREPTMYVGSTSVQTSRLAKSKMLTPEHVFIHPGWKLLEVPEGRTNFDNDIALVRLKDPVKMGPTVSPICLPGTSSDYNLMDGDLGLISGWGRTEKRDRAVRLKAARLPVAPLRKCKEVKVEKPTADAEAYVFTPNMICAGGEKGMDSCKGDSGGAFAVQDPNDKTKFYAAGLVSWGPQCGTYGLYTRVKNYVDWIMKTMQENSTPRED
Put plainly: C1s focused library screening (fluorescent substrate Boc-Leu-Gly-Arg-AMC, 10 µM). The experiment is classed as biochemical. The text has this: (§1) Recombinant C1s and C1r fragments (CCP1-CCP2-SP, the γB catalytic region) containing the serine protease domain were expressed in E. Coli BL21(DE3)pLysS host strain (transformed with pET-17b vector) in form of inclusion bodies; proteins were isolated, renatured and purified as published earlier. Recombinant C1s, isolated in intact proenzyme form, was activated by limited proteolysis using the recombinant, autoactivated C1r fragment. Activated C1s and C1r were separated using Q Sepharose HP (Amersham Biosciences, Little Chalfont, UK) anion exchange chromatography.
Two end-point assays have been developed for C1s inhibition assays: For screening assays a specific, fluorescent amide substrate Boc-Leu-Gly-Arg-AMC (Sigma, St. Louis, MO, USA), representing the cleavage site sequence of C2 was used with relatively high enzyme concentration (0.2 µM). Assay conditions: 20 mM HEPES (pH 7.4), 200 mM NaCl, 0.05% Tween20, 1% DMSO; 384 microplate format; 10 µL enzyme + 10 µL inhibitor compounds (final concentration: 10 µM); incubation time and temperature: 10 min, RT; then 20 µL substrate solution was added (1 mM final concentration); incubated (45 min, 30 °C) and the fluorescence have been read (355/460 nm; Wallac 1420 Victor2 microplate reader, Perkin Elmer, Waltham, MA, USA).

Experiment [2] addresses T1, C1s. The settings on record: cited from earlier work.
The test system of experiment [3] is C1s. The settings on record: ref [47]; cited from earlier work.
For experiment [4], the target named is T1, C1s. Put plainly: C1s inhibition IC50 assay (thioester substrate Z-Lys-SBzl with DTNB, photometric). The class given is biochemical.
From the text: as §1
40 µL enzyme + 10 µL inhibitor compounds were incubated (10 min, RT), and 50 µL substrate solution (1 mM final concentration) was added; incubated for 45 min and finally absorbance was read (405 nm) with a Perkin Elmer Wallac 1420 Victor2 microplate reader.

The next experiment concerns the target T2, Human isolated Factor Xa (Homo sapiens, UniProt P00742).
T2 construct: purchased ThermoFisher Scientific (Waltham, MA, USA)
Nature of the experiment: Factor Xa activity assay (fluorescent substrate Boc-Leu-Gly-Arg-AMC). The experiment is classed as biochemical. The settings on record: 10 µM compound. On the procedure: Human isolated Factor Xa protein was purchased from ThermoFisher Scientific (Waltham, MA, USA). An end-point assay was carried out using the fluorescent amide substrate Boc-Leu-Gly-Arg-AMC used for C1s 10 µM screen; assay conditions: 20 mM HEPES (pH 7,8) 100 mM NaCl, 10 mM CaCl2 30 °C, 0.05% TWEEN-20, 1% DMSO; low enzyme concentration (about 1 nM); in a 96 well microplate format (in 100 µL), using non-binding black plates (Greiner).

Experiment [5] has as its target T1, C1s. The conditions noted are these: ref [49]; read-out: IC50 C1s, reported value; cited from earlier work.

The values below come from paper PMC6832932, “Design and Selection of Novel C1s Inhibitors by In Silico and In Vitro Approaches” (Molecules, 2019).

Where two headings read alike, the source gives them in different places.

T2 sequence (P00742 235-488 limits assumed): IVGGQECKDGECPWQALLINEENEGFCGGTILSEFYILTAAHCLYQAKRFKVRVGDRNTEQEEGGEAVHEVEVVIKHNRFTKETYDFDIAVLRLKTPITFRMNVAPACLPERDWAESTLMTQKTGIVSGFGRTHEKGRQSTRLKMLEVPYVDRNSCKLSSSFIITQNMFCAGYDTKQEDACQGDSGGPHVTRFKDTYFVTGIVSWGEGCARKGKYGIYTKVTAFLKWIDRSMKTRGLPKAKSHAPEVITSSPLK
T2 sequence (P00742 41-179 partner limits assumed): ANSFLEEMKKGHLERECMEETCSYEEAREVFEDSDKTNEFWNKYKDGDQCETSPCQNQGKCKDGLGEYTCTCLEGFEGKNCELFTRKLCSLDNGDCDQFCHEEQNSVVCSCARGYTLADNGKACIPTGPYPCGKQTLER

Take `O=C(c1ccc(C(=O)n2nnc3ccccc32)cc1)n1nnc2ccccc21` [1-[4-(1,2,3-benzotriazole-1-carbonyl)benzoyl]-1,2,3-benzotriazole]: on C1s [1], the “C1s inhibitory activity (in words)” value was “inactive”. For the compound `CSc1nc(-c2ccco2)nn1C(=O)c1ccco1` [7 965 558], the IC50 (in general, the concentration at which inhibition is half-maximal) on C1s [2] (seed compounds for 2D similarity search, ref PubChem [9],[10], read-out: IC50 (seed compounds)) is 4480 nM.

On to `O=c1oc(-c2ccccc2I)nc2ccccc12` [CID296008, 2-(2′-iodophenyl)-3,1-benzoxazin-4-one], for which the IC50 with C1s [3] was 1250 nM.

As to `Cc1sc2nc(-c3ccco3)oc(=O)c2c1C` [Entry 17], the “C1s inhibitory activity as reported in ChEMBL and PubChem (in words)” value on C1s [2] (ref [9]) is “inactive”. Also, at C1s [4] (1 mM Z-Lys-SBzl, enzyme below 1 nM, read-out: IC50 C1s), the IC50 was found to be 549 nM. In addition, at Human isolated Factor Xa, the remaining activity (usually the share of the control activity or signal that is left under treatment) at 10 µM was found to be 100%. For the compound `N=C(N)c1ccc2cc(OC(=O)c3ccc(N=C(N)N)cc3)ccc2c1` [FUT175, nafamostat, reference compound], the IC50 on C1s [5] was 320 nM; at C1s [4] (validation with FUT175, read-out: IC50 C1s (assay validation)), 2 nM.
